Reference: ChEMBL document CHEMBL4765467, “Improving Thermodynamic Stability and Anticoagulant Activity of a Thrombin Binding Aptamer by Incorporation of 8-trifluoromethyl-2'-deoxyguanosine” (J Med Chem, 2021)
Calls of active or inactive are those of the source. The calls are words filed in the database; no cut-off is given here.

What was measured:
[1] = Thermodynamic stability assessed as change in melting temperature by CD spectroscopy relative to TBA; assay type: physicochemical
[2] = test system: Plasma; assay: Anticoagulant activity in human plasma assessed prothrombin time at 0.25 to 1 uM; assay type: functional; settings: dose 0.25-1 µM
[3] = Stability in 50% human plasma assessed as compound degradation at 50 uM measured within 3 hrs by PAGE analysis; assay type: ADME, cell-free
[4] = test system: Plasma; assay: Anticoagulant activity in human plasma assessed prothrombin time in presence of complementary sequence of TBA; assay type: functional, cell-free
[5] = test system: Plasma; assay: Anticoagulant activity in human plasma assessed prothrombin time in presence of 1.5 fold complementary sequence of TBA; assay type: functional, cell-free
[6] = Stability in 50% human plasma assessed as compound degradation at 50 uM measured within 3 hrs by PAGE analysis relative to TBA; assay type: ADME, cell-free

Compound	deltaTm [1]	Stabilty [3]	Stabilty [6]	PT [2]	Activity [4]	Activity [5]
Cc1cn([C@H]2C[C@H](OP(=O)(O)OC[C@H]3O[C@@H](n4cnc5c(=O)[nH]c(N)nc54)C[C@@H]3OP(=O)(O)OC[C@H]3O[C@@H](n4cc(C)c(=O)[nH]c4=O)C[C@@H]3OP(=O)(O)OC[C@H]3O[C@@H](n4cnc5c(=O)[nH]c(N)nc54)C[C@@H]3OP(=O)(O)OC[C@H]3O[C@@H](n4cnc5c(=O)[nH]c(N)nc54)C[C@@H]3OP(=O)(O)OC[C@H]3O[C@@H](n4cc(C)c(=O)[nH]c4=O)C[C@@H]3OP(=O)(O)OC[C@H]3O[C@@H](n4cc(C)c(=O)[nH]c4=O)C[C@@H]3OP(=O)(O)OC[C@H]3O[C@@H](n4cnc5c(=O)[nH]c(N)nc54)C[C@@H]3OP(=O)(O)OC[C@H]3O[C@@H](n4cnc5c(=O)[nH]c(N)nc54)C[C@@H]3O)[C@@H](COP(=O)(O)O[C@H]3C[C@H](n4cc(C)c(=O)[nH]c4=O)O[C@@H]3COP(=O)(O)O[C@H]3C[C@H](n4cnc5c(=O)[nH]c(N)nc54)O[C@@H]3COP(=O)(O)O[C@H]3C[C@H](n4cnc5c(=O)[nH]c(N)nc54)O[C@@H]3COP(=O)(O)O[C@H]3C[C@H](n4cc(C)c(=O)[nH]c4=O)O[C@@H]3COP(=O)(O)O[C@H]3C[C@H](n4cc(C)c(=O)[nH]c4=O)O[C@@H]3COP(=O)(O)O[C@H]3C[C@H](n4cnc5c(=O)[nH]c(N)nc54)O[C@@H]3COP(=O)(O)O[C@H]3C[C@H](n4cnc5c(=O)[nH]c(N)nc54)O[C@@H]3COP(=O)(O)O)O2)c(=O)[nH]c1=O		Stable		19.2 s	inactive	inactive
Cc1cn([C@H]2C[C@H](OP(=O)(O)OC[C@H]3O[C@@H](n4cnc5c(=O)[nH]c(N)nc54)C[C@@H]3OP(=O)(O)OC[C@H]3O[C@@H](n4cnc5c(=O)[nH]c(N)nc54)C[C@@H]3O)[C@@H](COP(=O)(O)O[C@H]3C[C@H](n4cc(C)c(=O)[nH]c4=O)O[C@@H]3COP(=O)(O)O[C@H]3C[C@H](n4cnc5c(=O)[nH]c(N)nc54)O[C@@H]3COP(=O)(O)O[C@H]3C[C@H](n4cnc5c(=O)[nH]c(N)nc54)O[C@@H]3COP(=O)(O)O[C@H]3C[C@H](n4cc(C)c(=O)[nH]c4=O)O[C@@H]3COP(=O)(O)O[C@H]3C[C@H](n4cnc5c(=O)[nH]c(N)nc54)O[C@@H]3COP(=O)(O)O[C@H]3C[C@H](n4cc(C)c(=O)[nH]c4=O)O[C@@H]3COP(=O)(O)O[C@H]3C[C@H](n4cnc5c(=O)[nH]c(N)nc54)O[C@@H]3COP(=O)(O)O[C@H]3C[C@H](n4c(C(F)(F)F)nc5c(=O)[nH]c(N)nc54)O[C@@H]3COP(=O)(O)O[C@H]3C[C@H](n4cc(C)c(=O)[nH]c4=O)O[C@@H]3COP(=O)(O)O[C@H]3C[C@H](n4cc(C)c(=O)[nH]c4=O)O[C@@H]3COP(=O)(O)O[C@H]3C[C@H](n4cnc5c(=O)[nH]c(N)nc54)O[C@@H]3COP(=O)(O)O[C@H]3C[C@H](n4cnc5c(=O)[nH]c(N)nc54)O[C@@H]3COP(=O)(O)O)O2)c(=O)[nH]c1=O	8.1 °C	Unstable		26 s		
Cc1cn([C@H]2C[C@H](OP(=O)(O)OC[C@H]3O[C@@H](n4cnc5c(=O)[nH]c(N)nc54)C[C@@H]3OP(=O)(O)OC[C@H]3O[C@@H](n4cnc5c(=O)[nH]c(N)nc54)C[C@@H]3OP(=O)(O)OC[C@H]3O[C@@H](n4cc(C)c(=O)[nH]c4=O)C[C@@H]3OP(=O)(O)OC[C@H]3O[C@@H](n4cnc5c(=O)[nH]c(N)nc54)C[C@@H]3OP(=O)(O)OC[C@H]3O[C@@H](n4cc(C)c(=O)[nH]c4=O)C[C@@H]3OP(=O)(O)OC[C@H]3O[C@@H](n4cnc5c(=O)[nH]c(N)nc54)C[C@@H]3OP(=O)(O)OC[C@H]3O[C@@H](n4cnc5c(=O)[nH]c(N)nc54)C[C@@H]3OP(=O)(O)OC[C@H]3O[C@@H](n4cc(C)c(=O)[nH]c4=O)C[C@@H]3OP(=O)(O)OC[C@H]3O[C@@H](n4cc(C)c(=O)[nH]c4=O)C[C@@H]3OP(=O)(O)OC[C@H]3O[C@@H](n4cnc5c(=O)[nH]c(N)nc54)C[C@@H]3OP(=O)(O)OC[C@H]3O[C@@H](n4cnc5c(=O)[nH]c(N)nc54)C[C@@H]3O)[C@@H](COP(=O)(O)O[C@H]3C[C@H](n4cc(C)c(=O)[nH]c4=O)O[C@@H]3COP(=O)(O)O[C@H]3C[C@H](n4c(C(F)(F)F)nc5c(=O)[nH]c(N)nc54)O[C@@H]3COP(=O)(O)O[C@H]3C[C@H](n4cnc5c(=O)[nH]c(N)nc54)O[C@@H]3COP(=O)(O)O)O2)c(=O)[nH]c1=O	-17.3 °C	Unstable		9.9 s		

Continued, in another order:

deltaTm [1]	Stabilty [3]	Stabilty [6]	Compound	PT [2]	Activity [4]	Activity [5]
5.7 °C	Unstable		Cc1cn([C@H]2C[C@H](OP(=O)(O)OC[C@H]3O[C@@H](n4cnc5c(=O)[nH]c(N)nc54)C[C@@H]3OP(=O)(O)OC[C@H]3O[C@@H](n4cnc5c(=O)[nH]c(N)nc54)C[C@@H]3OP(=O)(O)OC[C@H]3O[C@@H](n4cc(C)c(=O)[nH]c4=O)C[C@@H]3OP(=O)(O)OC[C@H]3O[C@@H](n4cnc5c(=O)[nH]c(N)nc54)C[C@@H]3OP(=O)(O)OC[C@H]3O[C@@H](n4cc(C)c(=O)[nH]c4=O)C[C@@H]3OP(=O)(O)OC[C@H]3O[C@@H](n4cnc5c(=O)[nH]c(N)nc54)C[C@@H]3OP(=O)(O)OC[C@H]3O[C@@H](n4cnc5c(=O)[nH]c(N)nc54)C[C@@H]3OP(=O)(O)OC[C@H]3O[C@@H](n4cc(C)c(=O)[nH]c4=O)C[C@@H]3OP(=O)(O)OC[C@H]3O[C@@H](n4cc(C)c(=O)[nH]c4=O)C[C@@H]3OP(=O)(O)OC[C@H]3O[C@@H](n4cnc5c(=O)[nH]c(N)nc54)C[C@@H]3OP(=O)(O)OC[C@H]3O[C@@H](n4cnc5c(=O)[nH]c(N)nc54)C[C@@H]3O)[C@@H](COP(=O)(O)O[C@H]3C[C@H](n4cc(C)c(=O)[nH]c4=O)O[C@@H]3COP(=O)(O)O[C@H]3C[C@H](n4cnc5c(=O)[nH]c(N)nc54)O[C@@H]3COP(=O)(O)O[C@H]3C[C@H](n4c(C(F)(F)F)nc5c(=O)[nH]c(N)nc54)O[C@@H]3COP(=O)(O)O)O2)c(=O)[nH]c1=O	18.3 s		
7.6 °C	Unstable		Cc1cn([C@H]2C[C@H](OP(=O)(O)OC[C@H]3O[C@@H](n4cnc5c(=O)[nH]c(N)nc54)C[C@@H]3OP(=O)(O)OC[C@H]3O[C@@H](n4cnc5c(=O)[nH]c(N)nc54)C[C@@H]3OP(=O)(O)OC[C@H]3O[C@@H](n4cc(C)c(=O)[nH]c4=O)C[C@@H]3OP(=O)(O)OC[C@H]3O[C@@H](n4cnc5c(=O)[nH]c(N)nc54)C[C@@H]3OP(=O)(O)OC[C@H]3O[C@@H](n4cc(C)c(=O)[nH]c4=O)C[C@@H]3OP(=O)(O)OC[C@H]3O[C@@H](n4c(C(F)(F)F)nc5c(=O)[nH]c(N)nc54)C[C@@H]3OP(=O)(O)OC[C@H]3O[C@@H](n4cnc5c(=O)[nH]c(N)nc54)C[C@@H]3OP(=O)(O)OC[C@H]3O[C@@H](n4cc(C)c(=O)[nH]c4=O)C[C@@H]3OP(=O)(O)OC[C@H]3O[C@@H](n4cc(C)c(=O)[nH]c4=O)C[C@@H]3OP(=O)(O)OC[C@H]3O[C@@H](n4cnc5c(=O)[nH]c(N)nc54)C[C@@H]3OP(=O)(O)OC[C@H]3O[C@@H](n4cnc5c(=O)[nH]c(N)nc54)C[C@@H]3O)[C@@H](COP(=O)(O)O[C@H]3C[C@H](n4cc(C)c(=O)[nH]c4=O)O[C@@H]3COP(=O)(O)O[C@H]3C[C@H](n4cnc5c(=O)[nH]c(N)nc54)O[C@@H]3COP(=O)(O)O[C@H]3C[C@H](n4cnc5c(=O)[nH]c(N)nc54)O[C@@H]3COP(=O)(O)O)O2)c(=O)[nH]c1=O	21.9 s		
-3.1 °C	Unstable		Cc1cn([C@H]2C[C@H](OP(=O)(O)OC[C@H]3O[C@@H](n4cnc5c(=O)[nH]c(N)nc54)C[C@@H]3OP(=O)(O)OC[C@H]3O[C@@H](n4cnc5c(=O)[nH]c(N)nc54)C[C@@H]3OP(=O)(O)OC[C@H]3O[C@@H](n4cc(C)c(=O)[nH]c4=O)C[C@@H]3OP(=O)(O)OC[C@H]3O[C@@H](n4c(C(F)(F)F)nc5c(=O)[nH]c(N)nc54)C[C@@H]3OP(=O)(O)OC[C@H]3O[C@@H](n4cc(C)c(=O)[nH]c4=O)C[C@@H]3OP(=O)(O)OC[C@H]3O[C@@H](n4cnc5c(=O)[nH]c(N)nc54)C[C@@H]3OP(=O)(O)OC[C@H]3O[C@@H](n4cnc5c(=O)[nH]c(N)nc54)C[C@@H]3OP(=O)(O)OC[C@H]3O[C@@H](n4cc(C)c(=O)[nH]c4=O)C[C@@H]3OP(=O)(O)OC[C@H]3O[C@@H](n4cc(C)c(=O)[nH]c4=O)C[C@@H]3OP(=O)(O)OC[C@H]3O[C@@H](n4cnc5c(=O)[nH]c(N)nc54)C[C@@H]3OP(=O)(O)OC[C@H]3O[C@@H](n4cnc5c(=O)[nH]c(N)nc54)C[C@@H]3O)[C@@H](COP(=O)(O)O[C@H]3C[C@H](n4cc(C)c(=O)[nH]c4=O)O[C@@H]3COP(=O)(O)O[C@H]3C[C@H](n4cnc5c(=O)[nH]c(N)nc54)O[C@@H]3COP(=O)(O)O[C@H]3C[C@H](n4cnc5c(=O)[nH]c(N)nc54)O[C@@H]3COP(=O)(O)O)O2)c(=O)[nH]c1=O	19.1 s		
30 °C	Unstable	Stable	Cc1cn([C@H]2C[C@H](OP(=O)(O)OC[C@H]3O[C@@H](n4c(C(F)(F)F)nc5c(=O)[nH]c(N)nc54)C[C@@H]3OP(=O)(O)OC[C@H]3O[C@@H](n4cnc5c(=O)[nH]c(N)nc54)C[C@@H]3OP(=O)(O)OC[C@H]3O[C@@H](n4cc(C)c(=O)[nH]c4=O)C[C@@H]3OP(=O)(O)OC[C@H]3O[C@@H](n4cnc5c(=O)[nH]c(N)nc54)C[C@@H]3OP(=O)(O)OC[C@H]3O[C@@H](n4cc(C)c(=O)[nH]c4=O)C[C@@H]3OP(=O)(O)OC[C@H]3O[C@@H](n4c(C(F)(F)F)nc5c(=O)[nH]c(N)nc54)C[C@@H]3OP(=O)(O)OC[C@H]3O[C@@H](n4cnc5c(=O)[nH]c(N)nc54)C[C@@H]3OP(=O)(O)OC[C@H]3O[C@@H](n4cc(C)c(=O)[nH]c4=O)C[C@@H]3OP(=O)(O)OC[C@H]3O[C@@H](n4cc(C)c(=O)[nH]c4=O)C[C@@H]3OP(=O)(O)OC[C@H]3O[C@@H](n4c(C(F)(F)F)nc5c(=O)[nH]c(N)nc54)C[C@@H]3OP(=O)(O)OC[C@H]3O[C@@H](n4cnc5c(=O)[nH]c(N)nc54)C[C@@H]3O)[C@@H](COP(=O)(O)O[C@H]3C[C@H](n4cc(C)c(=O)[nH]c4=O)O[C@@H]3COP(=O)(O)O[C@H]3C[C@H](n4cnc5c(=O)[nH]c(N)nc54)O[C@@H]3COP(=O)(O)O[C@H]3C[C@H](n4c(C(F)(F)F)nc5c(=O)[nH]c(N)nc54)O[C@@H]3COP(=O)(O)O)O2)c(=O)[nH]c1=O	18.6 s		Active
